{
  "source": "patent US20130230580A1",
  "about": "“Administration of SNS Neuroprotective Agents to Promote Hematopoietic Regeneration” (priority 2010, published 2013)",
  "molecules": {"B1": {"name": "GDNF-HA: glial cell-derived neurotrophic factor-hemagluttinin fusion (protein, UniProt P39905 78-211, looked up)", "Glial cell line-derived …": "SPDKQMAVLPRRERNRQAAAANPENSRGKGRRGQRGKNRGCVLTAIHLNVTDLGLGYETKEELIFRYCSGSCDAAETTYDKILKNLSRNRRLVSDKVGQACCRPIAFDDDLSFLDDNLVYHILRKHSAKRCGCI", "modifications": "hemagglutinin tag", "notes": "glial cell-derived neurotrophic factor-hemagluttinin fusion"}},
  "key": {"[1]": {"design": "species or system mice", "settings": "mouse, in vivo", "procedure": "(§1) To protect from kidney damage, mice were simultaneously subcutaneously (s.c.) injected with 1 mL of saline solution. Four weeks after the last injection of cisplatin, mice were euthanized for analysis, transplanted (see below) or mobilized with granulocyte colony-stimulating factor (G-CSF, see below).\nTo induce neuroprotection from 60HDA, mice were injected with 4-MC (10 μg/kg; i.p.) or GDNF-Fc (5 μg per mice; s.c.) for 5 days, starting the treatment the same day as the first injection of 60HDA.\nMice received G-CSF ([…]) s.c. every 12 hours for 5 days. Due to circadian oscillations on HSC mobilization, the last dose of G-CSF was administered 1 hour before blood collection at Zeigeber time 5.\n(§2) Blood was harvested by retro-orbital sampling of mice anesthetized with isoflurane and collected in polypropylene tubes containing ethylenediaminetetraacetic acid (EDTA). Blood parameters were determined with an AcT differential counter (Beckman-Coulter). CFU-C assays were performed as described in He et al., Ann. Rev. Cell. Dev. Biol. 25:377 (2009), incorporated herein by reference. For flow cytometry, red blood cells were lysed thrice for 5 minutes at 4° C. in 0.15 M NH4Cl, cells were washed once in ice-cold PBS and counted in a hemocytometer. […] Cells were further stained with streptavidin-Cy5 (Jackson Immunotech) and analyzed with a BD LSR11 system (BD Biosciences). Bone marrow was harvested by flushing the bone with 1 mL of ice-cold PBS, red blood cells were lysed once for 5 minutes at 4° C. in 0.15 M NH4Cl, cells were washed once in ice-cold PBS and counted with a hemocytometer. CFU-C and Lin^−Sca1^+c-kit^+ft13^− numbers were determined as above. In some experiments, CD150^+CD48^− cell numbers were determined by staining 5×10^6 cells with PE-anti-CD48 antibody (BD Biosciences) and PE-Cy7-anti-CD150 antibody (Biolegend)."}, "[2]": {"assay": "Complete blood counts of moribund cisplatin-treated mice after BMNC transplantation", "format": "in vivo", "settings": "after BMT", "procedure": "as §1\n(§3) Mice were irradiated (1,200 cGy, two split doses, 3 hours apart) in a Cesium Mark 1 irradiator (JL Shepperd & associates). Three hours later, the indicated number of BMNCs was injected retroorbitally in the irradiated recipients under isoflurane (Phoenix Pharmaceuticals) anesthesia. Mice were allowed to recover and analyzed at the indicated time points.\nas §2, with “Bone marrow was harvested by flushing the bone with 1 mL of ice-cold PBS, red blood cells were lysed once for 5 minutes at 4° C. in 0.15 M NH4Cl, cells were washed once in ice-cold PBS and counted with a hemocytometer.” left out, “In some experiments, CD150^+CD48^− cell numbers were determined by staining 5×10^6 cells with PE-anti-CD48 antibody (BD Biosciences) and PE-Cy7-anti-CD150 antibody (Biolegend).” left out"}, "bone marrow": {"tested_on": "bone marrow", "assay": "Bone marrow hematopoietic recovery after transplantation (BMNC, CFU-C, Lin-Sca1+c-kit+flt3- cells)", "format": "in vivo, mice", "procedure": "as §3, with “points. […]” for “points.”\nBlood was harvested by retro-orbital sampling of mice anesthetized with isoflurane and collected in polypropylene tubes containing ethylenediaminetetraacetic acid (EDTA). Blood parameters were determined with an AcT differential counter (Beckman-Coulter). CFU-C assays were performed as described in He et al., Ann. Rev. Cell. Dev. Biol. 25:377 (2009), incorporated herein by reference. For flow cytometry, red blood cells were lysed thrice for 5 minutes at 4° C. in 0.15 M NH4Cl, cells were washed once in ice-cold PBS and counted in a hemocytometer. To determine Lin^−Sca1^+c-kit^+ or Lin^−Sca1^+c-kit^+ft13^− numbers, 10^6 cells were stained with the Mouse Lineage Panel (BD Biosciences) together with FITC-conjugated anti-Sca-1 antibody (BD Biosciences), PE-Cy7-conjugated anti-c-kit antibody (eBioscience) and PE-conjugated anti-flt3 antibody (eBioscience). Cells were further stained with streptavidin-Cy5 (Jackson Immunotech) and analyzed with a BD LSR11 system (BD Biosciences). Bone marrow was harvested by flushing the bone with 1 mL of ice-cold PBS, red blood cells were lysed once for 5 minutes at 4° C. in 0.15 M NH4Cl, cells were washed once in ice-cold PBS and counted with a hemocytometer. CFU-C and Lin^−Sca1^+c-kit^+ft13^− numbers were determined as above. In some experiments, CD150^+CD48^− cell numbers were determined by staining 5×10^6 cells with PE-anti-CD48 antibody (BD Biosciences) and PE-Cy7-anti-CD150 antibody (Biolegend)."}, "[3]": {"format": "in vivo", "settings": "cisplatin-treated vs saline mice, seven weekly injections; listed as Cisplatin", "procedure": "To protect from kidney damage, mice were simultaneously subcutaneously (s.c.) injected with 1 mL of saline solution. Four weeks after the last injection of cisplatin, mice were euthanized for analysis, transplanted (see below) or mobilized with granulocyte colony-stimulating factor (G-CSF, see below). […] To induce neuroprotection from 60HDA, mice were injected with 4-MC (10 μg/kg; i.p.) or GDNF-Fc (5 μg per mice; s.c.) for 5 days, starting the treatment the same day as the first injection of 60HDA. To evaluate the effect of different treatments on the sensory response, the hot-plate test was performed as described in Raaijmakers et al., Curr. Opin. Hematol. 15:301 (2008), incorporated herein by reference. An Isotemp Dryblock (Fisher Scientific) was heated to, and maintained at, 50° C. Mice were individually placed on top of the heated surface and the time to the first episode of nociception (jumping or paw licking) was measured. The cut-off time was 60 seconds. Between measurements, the heated surface was thoroughly cleaned with detergent and ethanol and the temperature was allowed to stabilize at 50° C."}, "TH+ fibers": {"tested_on": "TH+ fibers", "assay": "Immunofluorescence quantification of TH+ sympathetic fibers in bone marrow / calvaria", "settings": "compared with vehicle control", "protocol": "Bones were collected and fixed for 1 hour in 4% paraformaldehyde (PFA) in PBS (Electron Microscopy Sciences) at 4° C. They were then post-fixed overnight in 1% PFA in PBS at 4° C. and cryoprotected for 24 hours in 30% sucrose. Bones were then included in OCT (Tissue Tek), sectioned (14 μm sections) in a Cryostat, and mounted on CFSA 4× Slides (Leica). TH^+ immunofluorescence staining was performed as previously described in Mendez-Ferrer, et al., Nature 452:442 (2008), incorporated herein by reference. For each mouse analyzed, the number of nerve fibers in 6 fields was quantified and plotted as per mm^2. For whole-mount immunofluorescence, calvaria were harvested by cutting along the temporal lines of the skull and immediately fixed in methanol. Bone tissues were blocked/permeabilized in PBS containing 20% FCS and 0.5% Triton and stained with APC-conjugated anti-PECAM CD31 antibody and TH (Millipore). Signal amplification for TH staining was achieved by using a signal amplification kit (Perkin Elmer). Whole-mount tissues were imaged face-down on an upright Olympus BX61WI microscope. The area between the frontal and parietal bones was identified by moving along the coronal suture and images were obtained from the same area for all mice, along the coronal vein on either side of the central vein. The numbers of individual nerve fibers running alongside blood vessels were quantified and plotted as per 100 μm vessel segment. All images were processed using Slidebook software (Intelligent Imaging Innovations, Inc.)."}, "PC12ES cells": {"tested_on": "PC12ES cells", "assay": "Neural differentiation of PC12ES cells", "format": "cell-based", "settings": "incubation for 1 week", "procedure": "The murine cDNA for glial cell-line derived neurotrophic factor (Gdnf) was obtained from Open Biosystems. This cDNA was amplified and restriction sites were added for cloning with the following primers Forward: ACGCTAGCAATGGGATTCGGGCCACTT (SEQ ID NO:1); Reverse: CGAGATCTGCGATACATCCACACCGTTTAG (SEQ ID NO:2). The PCR product was purified and cloned into the PCL5.1neg plasmid to generate PCL5.1neg-GDNF. This plasmid was purified and transfected into 293T cells. Two days after transfection, the supernatant was collected and GDNF-Fc purified in a Protein G-sepharose column (Pierce). To assess functional activity of GDNF-Fc recombinant protein, PC12ES cells were cultured in DMEM supplemented with 5% FBS, 10% horse serum, sodium-pyruvate (Gibco), L-Glutamine (Gibco) and penicillin/streptomycin (Gibco) for 3 days and then the media was replaced with DMEM supplemented with 1% horse serum, sodium-pyruvate (Gibco), L-Glutamine (Gibco), penicillin/streptomycin (Gibco) and varying amounts of GDNF-Fc to induce differentiation. Seven days later the percentage of PC12 ES cells with two or more dendrites was scored under an inverted microscope. For each concentration of GDNF-Fc, 10 fields were analyzed."}},
  "data": [
    {"molecule": "N.N.[Cl][Pt][Cl]", "note": "[cisplatin]", "values": [
      {"measurement": "number of mobilized progenitors in blood after G-CSF", "setting": "[1]", "value": "markedly reduced"},
      {"measurement": "progenitor and Lin-Sca1+c-kit+flt3- HSC numbers in BM", "setting": "[1]", "value": "no significant change"},
      {"measurement": "reduction in number of mobilized progenitors in blood", "setting": "[1]", "value": "approximately 50%"},
      {"measurement": "anemia in moribund mice", "setting": "[2]", "value": "severe anemia"},
      {"measurement": "bone marrow cellularity of surviving mice after transplantation", "setting": "bone marrow; cisplatin-treated, four weeks after BMT", "value": "severely aplastic"},
      {"measurement": "BM recovery 3 months after transplantation", "setting": "bone marrow; mouse, in vivo", "value": "not yet completely recovered"},
      {"measurement": "HSC content by competitive repopulation assays", "setting": "bone marrow; mouse, in vivo", "value": "reduced HSC content"},
      {"measurement": "sensory neuropathy (latency time in nociception assay)", "setting": "[3]", "value": "induces peripheral neuropathy"},
      {"measurement": "reduction of density of TH+ fibers in bone marrow", "setting": "TH+ fibers", "value": 65, "unit": "%"}
    ]},
    {"molecule": "B1", "values": [
      {"measurement": "neural differentiation of PC12ES cells (percent differentiated)", "setting": "PC12ES cells", "value": "increase in the percent differentiation"}
    ]}
  ]
}
